What was measured:
[1] = test system: pain of de Quervain syndrome; assay: Pain relief test (de Quervain syndrome); format: in vivo, human; conditions: person one; oral, earlier treatment
Experimental: This test was conducted by a physical therapist. subject one was a person who has been suffering from de Quervain syndrome. Oral anti-inflammatory loxoprofen sodium had shown no effect on the pain of de Quervain syndrome. They had been suffering from sharp pain in the short rollical extensor muscle and the […] of the radial aspect of the hand joint. […] Therefore, pain relief effect of a carbon dioxide external preparation of the present invention was obvious.

[2] = test system: pain and knee stiffness of rheumatism; assay: Pain and knee stiffness of rheumatism improvement test; format: in vivo, human; conditions: person two; oral, earlier treatment
Text: Therefore, pain and knee stiffness of rheumatism improvement effect of a carbon dioxide external preparation of the present invention was obvious.

CC(C(=O)O)c1ccc(CC2CCCC2=O)cc1 (centres unmarked) [loxoprofen sodium]
effect on the pain of de Quervain syndrome [1]: no effect | pain and knee stiffness of rheumatism [2]: had not been improved
